From patent EP0352817A2, “Monoclonal antibody to catecholamine metabolite and quantitative assay for catecholamine metabolite” (ORIENTAL YEAST CO., LTD., priority 1988, dated 1990)

Test system: monoclonal antibody specific against catecholamine metabolites containing 3-methoxy, 4-hydroxy group therein
Experiment: standard curves for fractionation and determination of ℓ-VMA and HVA in competitive EIA
Type: binding, BALB/c mice
Details: pH 8.0, amount of less than 1 µM
Excerpt: Then, VMA-SBA adsorbed onto the solid phase by the action other than the covalent bond was washed with 0.1 N acetic acid containing 0.1% (w/v) SDS.

COc1cc(C(O)C(=O)O)ccc1O (single isomer, unassigned) [ℓ-VMA]
reaction in competitive EIA: did not react

COc1cc(C(O)C(=O)O)ccc1O (centres unmarked) [Vanillylmandelic acid]
reaction in competitive EIA: reacted only
